The target of this experiment is aldosterone synthase (CYP11B2) (Macaca fascicularis, UniProt A0A2K5UPL9). Kind of experiment: aldosterone synthase inhibition assay. In kind it is biochemical, cynomolgus monkey. Particulars: cynomolgus adrenal gland mitochondria, 2 μM corticosterone, aldosterone quantified by mass spectrometry. Put shortly:
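Cynomolgus adrenal mitochondria ([…]) used as CYP11B2 source with 2 μM corticosterone in 100 mM potassium phosphate pH 7.4, 1% DMSO; reaction started with 1 mM NADPH, run 60-90 min at 37° C. Aldosterone measured by mass spectrometry; IC50 from 4-parameter logistic fit, no-NADPH blank as 0%.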
Chain of aldosterone synthase (CYP11B2) (A0A2K5UPL9 1-503): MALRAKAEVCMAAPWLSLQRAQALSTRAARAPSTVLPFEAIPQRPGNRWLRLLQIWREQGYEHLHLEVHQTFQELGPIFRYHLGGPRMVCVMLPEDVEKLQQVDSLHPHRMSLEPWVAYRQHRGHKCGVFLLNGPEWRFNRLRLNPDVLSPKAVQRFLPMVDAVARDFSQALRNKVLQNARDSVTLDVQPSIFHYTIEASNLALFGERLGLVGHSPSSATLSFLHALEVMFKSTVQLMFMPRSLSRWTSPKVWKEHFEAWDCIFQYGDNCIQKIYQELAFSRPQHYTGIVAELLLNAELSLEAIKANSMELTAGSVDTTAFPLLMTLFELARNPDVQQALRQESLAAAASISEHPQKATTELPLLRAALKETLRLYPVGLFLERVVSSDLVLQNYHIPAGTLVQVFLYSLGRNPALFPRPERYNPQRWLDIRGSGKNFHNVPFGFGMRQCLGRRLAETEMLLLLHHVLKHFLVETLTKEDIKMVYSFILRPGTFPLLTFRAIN
The term IC50 denotes the concentration needed to halve the response being measured. Low readings indicate greater potency in that assay, high ones weaker potency in that assay. Take `Cc1noc2ccc(-c3cncc4c3COC3(CC3)C4O)cc12` (single isomer, unassigned) [Compound 114, 8-(3-methyl-1,2-benzoxazol-5-yl)spiro[1,4-dihydropyrano[4,3-c]pyridine-3,1′-cyclopropane]-4-ol]: the half-inhibitory concentration (IC50) came to 0.0188 µM.

`O=C1CCCc2ccc(-c3cncc4c3COCC4O)cc21` (single isomer, unassigned) [Compound 115, 7-(4-Hydroxy-3,4-dihydro-1H-pyrano[4,3-c]pyridin-8-yl)-3,4-dihydro-2H-naphthalen-1-one] came in with an IC50 of 0.58 µM. `O=C1CCCc2ccc(-c3cncc4c3COCC4O)cc21` (single isomer, unassigned) [Compound 116, 7-(4-Hydroxy-3,4-dihydro-1H-pyrano[4,3-c]pyridin-8-yl)-3,4-dihydro-2H-naphthalen-1-one] came in with a half-inhibitory concentration (IC50) of 0.0263 µM.

In the case of `O=C1CCCc2cc(-c3cncc4c3COCC4O)ccc21` (single isomer, unassigned) [Compound 117, 6-(4-Hydroxy-3,4-dihydro-1H-pyrano[4,3-c]pyridin-8-yl)-3,4-dihydro-2H-naphthalen-1-one], 0.103 µM corresponded to half-maximal inhibition (IC50). To `O=C1CCCc2cc(-c3cncc4c3COCC4O)ccc21` (single isomer, unassigned) [Compound 118, 6-(4-Hydroxy-3,4-dihydro-1H-pyrano[4,3-c]pyridin-8-yl)-3,4-dihydro-2H-naphthalen-1-one] belongs 0.0125 µM. To `O=C1NCCc2ccc(-c3cncc4c3COCC4O)cc21` (single isomer, unassigned) [Compound 119, 7-(4-Hydroxy-3,4-dihydro-1H-pyrano[4,3-c]pyridin-8-yl)-3,4-dihydro-2H-isoquinolin-1-one] belongs 0.96 µM; to `O=C1NCCc2cc(-c3cncc4c3COCC4O)ccc21` (single isomer, unassigned) [Compound 120, 6-(4-Hydroxy-3,4-dihydro-1H-pyrano[4,3-c]pyridin-8-yl)-3,4-dihydro-2H-isoquinolin-1-one], 0.79 µM; to `O=C1NCCc2cc(-c3cncc4c3COCC4O)ccc21` (single isomer, unassigned) [Compound 121, 6-(4-Hydroxy-3,4-dihydro-1H-pyrano[4,3-c]pyridin-8-yl)-3,4-dihydro-2H-isoquinolin-1-one], 0.095 µM. As for `O=C1CCOc2cc(-c3cncc4c3COCC4O)ccc21` (single isomer, unassigned) [Compound 122, 7-(4-Hydroxy-3,4-dihydro-1H-pyrano[4,3-c]pyridin-8-yl)-chroman-4-one], the midpoint of inhibition, the IC50, lay at 0.194 µM. With `O=C1CCOc2cc(-c3cncc4c3COCC4O)ccc21` (single isomer, unassigned) [Compound 123, 7-(4-Hydroxy-3,4-dihydro-1H-pyrano[4,3-c]pyridin-8-yl)-chroman-4-one] the figure was 0.0163 µM; with `CN1CCc2cc(-c3cncc4c3COCC4O)ccc2C1=O` (single isomer, unassigned) [Compound 124, 6-(4-Hydroxy-3,4-dihydro-1H-pyrano[4,3-c]pyridin-8-yl)-2-methyl-3,4-dihydro-2H-isoquinolin-1-one], 1.01 µM; with `O=c1ccc2cc(-c3cncc4c3COCC4O)ccc2o1` (single isomer, unassigned) [Compound 125, 6-(4-Hydroxy-3,4-dihydro-1H-pyrano[4,3-c]pyridin-8-yl)-chromen-2-one], 0.0228 µM. With `O=c1ccc2cc(-c3cncc4c3COCC4O)ccc2o1` (single isomer, unassigned) [Compound 126, 6-(4-Hydroxy-3,4-dihydro-1H-pyrano[4,3-c]pyridin-8-yl)-chromen-2-one] the figure was 0.014 µM; with `OC1COCc2c(-c3ccc4c(Cl)n[nH]c4c3)cncc21` (single isomer, unassigned) [Compound 127, 8-(3-Chloro-1H-indazol-6-yl)-3,4-dihydro-1H-pyrano[4,3-c]pyridin-4-ol], 0.0067 µM. To `CCC(=O)NC1COCc2c(-c3ccc4c(Cl)n[nH]c4c3)cncc21` (single isomer, unassigned) [Compound 128, N-[8-(3-Chloro-1H-indazol-6-yl)-3,4-dihydro-1H-pyrano[4,3-c]pyridin-4-yl]-propionamide] belongs 0.0112 µM. Turning to `CCS(=O)(=O)NC1COCc2c(-c3ccc4c(Cl)n[nH]c4c3)cncc21` (single isomer, unassigned) [Compound 129, Ethanesulfonic acid [8-(3-chloro-1H-indazol-6-yl)-3,4-dihydro-1H-pyrano[4,3-c]pyridin-4-yl]-amide], the IC50 was found to be 0.0459 µM. The compound `OC1COCc2c(-c3cc(Cl)c4cn[nH]c4c3)cncc21` (single isomer, unassigned) [Compound 130, 8-(4-Chloro-1H-indazol-6-yl)-3,4-dihydro-1H-pyrano[4,3-c]pyridin-4-ol] had a 50% inhibitory concentration (IC50) of 0.238 µM. With `OC1CCOc2ccc(-c3cncc4c3COCC4O)cc21` (single isomer, unassigned) [Compound 131, 8-(4-Hydroxy-chroman-6-yl)-3,4-dihydro-1H-pyrano[4,3-c]pyridin-4-ol] the figure was 1.47 µM; with `CCC(=O)NC1COCc2c(-c3ccc4c(c3)C(O)CCO4)cncc21` (single isomer, unassigned) [Compound 132, N-[8-(4-Hydroxy-chroman-6-yl)-3,4-dihydro-1H-pyrano[4,3-c]pyridin-4-yl]-propionamide], 0.518 µM.

As for `CCS(=O)(=O)NC1COCc2c(-c3ccc4c(c3)C(O)CCO4)cncc21` (single isomer, unassigned) [Compound 133, Ethanesulfonic acid [8-(4-hydroxy-chroman-6-yl)-3,4-dihydro-1H-pyrano[4,3-c]pyridin-4-yl]-amide], the concentration for half-maximal inhibition (IC50) turned out to be 1.47 µM.

With `OC1CCOc2ccc(-c3cncc4c3COCC4O)cc21` (single isomer, unassigned) [Compound 134, 8-(4-Hydroxy-chroman-6-yl)-3,4-dihydro-1H-pyrano[4,3-c]pyridin-4-ol], 0.253 µM corresponded to half-maximal inhibition (IC50). To `CCC(=O)NC1COCc2c(-c3ccc4c(c3)C(O)CCO4)cncc21` (single isomer, unassigned) [Compound 135, N-[8-(4-Hydroxy-chroman-6-yl)-3,4-dihydro-1H-pyrano[4,3-c]pyridin-4-yl]-propionamide] belongs 0.341 µM. To `CCS(=O)(=O)NC1COCc2c(-c3ccc4c(c3)C(O)CCO4)cncc21` (single isomer, unassigned) [Compound 136, Ethanesulfonic acid [8-(4-hydroxy-chroman-6-yl)-3,4-dihydro-1H-pyrano[4,3-c]pyridin-4-yl]-amide] belongs 10 µM. `CC1(O)CCOc2ccc(-c3cncc4c3COCC4O)cc21` (single isomer, unassigned) [Compound 137, 8-(4-Hydroxy-4-methyl-chroman-6-yl)-3,4-dihydro-1H-pyrano[4,3-c]pyridin-4-ol] gave an IC50 of 1.87 µM. In turn, `CC1(O)CCOc2ccc(-c3cncc4c3COCC4O)cc21` (single isomer, unassigned) [Compound 138, 8-(4-Hydroxy-4-methyl-chroman-6-yl)-3,4-dihydro-1H-pyrano[4,3-c]pyridin-4-ol] returned a half-inhibitory concentration (IC50) of 1.56 µM. Regarding `CC1(O)CCOc2ccc(-c3cncc4c3COCC4O)cc21` (single isomer, unassigned) [Compound 139, 8-(4-Hydroxy-4-methyl-chroman-6-yl)-3,4-dihydro-1H-pyrano[4,3-c]pyridin-4-ol], 2.8 µM corresponded to half-maximal inhibition (IC50).

For the origin of these results see patent US9890171B2, “Aldosterone synthase inhibitors” (Boehringer Ingelheim International GmbH, priority 2014, dated 2018).
